Measurements from US20160089464A1, “MALODOR REDUCTION COMPOSITIONS” (The Procter & Gamble Company, priority 2014, published 2016).

Test: Comment Code material properties: vapor pressure, ClogP, probability of ingredient color instability, odor detection threshold, melamine formaldehyde PMC headspace response ratio and leakage, liquid dish neat product liquid-air partition coefficient
Assay type: physicochemical
[1] = Table 1 materials, each letter of the code is one property class (vapor pressure, ClogP, color instability, odor detection threshold, PMC headspace ratio, PMC leakage, liquid dish liquid-air partition coefficient)
[2] = cell strings several class symbols together, each letter is one property class of L1
[3] = letter codes A-L: vapor pressure, ClogP, probability of ingredient color instability, odor detection threshold, PMC headspace response ratio, PMC leakage, liquid dish liquid-air partition coefficient, Table 1 materials with at least one MORV from 1 to 5

Comment Code [1] | Comment Code [2] | Comment Code [3] | Compound
DFHJ | – | – | CCC(=O)OCC(=O)OC(C)C1CCCC(C)(C)C1 (centres unmarked) [Material 1009]
ADHIJKL | – | – | C=C1CCCC(C)(C)C1C(=O)OC (centres unmarked) [Material 1010]
– | ADHIJKL | – | CC(=O)OC(C)C1CCCC(C)(C)C1 (centres unmarked) [Material 1011]
DEFHJK | – | – | CC(CO)CCCc1ccccc1 (centres unmarked) [Material 1012]
BCEFGJK | – | – | CC1=CCOC(c2ccccc2)C1 (centres unmarked) [Material 1016]
BCEFHIJKL | – | – | C=C1C(O)CC2(C(C)C)CC12 (centres unmarked) [Material 1020]
DEFHJK | – | – | CC1=CCC(CCC(C)C(C)O)C1(C)C (centres unmarked) [Material 1023]
CHJK | – | – | CC(=CCC1CC=C(C)C1(C)C)CO (centres unmarked) [Material 1025]
– | BDEFHJK | – | CCCOC(=O)[C@H](C)OC(C)(C)CC [Material 1030]
DEFHJ | – | – | CC(OC(C)(C)COC(=O)C1CC1)C1CCCC(C)(C)C1 (centres unmarked) [Material 1032]
DHJK | – | – | CC(C)Cc1ccc(CC(C)C=O)cc1 (centres unmarked) [Material 1033]
– | BCEFGIJKL | – | CC/C(CC(C)CC)=N/O (centres unmarked) [Material 1040]
– | ACEFHIK | – | CC(=O)OC(C)c1ccccc1 (centres unmarked) [Material 1041]
DEFHJK | – | – | CC1=CC2C(C(C)C)CCC(C)(O)C2CC1 (centres unmarked) [Material 1046]
DEFHJK | – | – | CC1=CC2C(C(C)C)CCC(C)(O)C2CC1 (centres unmarked) [Material 1047]
– | ADEFHJKL | – | CCC(C)(CCCC(C)C)OC(C)=O (centres unmarked) [Material 1055]
– | ADEFHIJKL | – | CCOC(=O)[C@@H]1[C@@H](C)CCCC1(C)C [Material 1058]
ADHIJKL | – | – | COc1cc(C)ccc1C(C)C [Material 1062]
– | BDHIJK | – | CC=CC(=O)C1C(C)=CCCC1(C)C (centres unmarked) [Material 1074]
ADGIKL | – | – | C=C/C(C)=C/CC=C(C)C [Material 1077]

Comment Code [1] | Comment Code [2] | Comment Code [3] | Compound
– | ACGIJKL | – | C=C(C)[C@@H]1CC[C@@H](C)C(=O)C1 [Material 1081]
DFHJK | – | – | CCCCCC1C(=O)CCC1CC(=O)OC (centres unmarked) [Material 1083]
– | CEFHIK | – | C/C=C/c1ccc(O)c(OC)c1 [Material 1084]
CEFHJ | – | – | CC(C)(C)c1ccc2c(c1)OCC(=O)CO2 [Material 1085]
DFHJ | – | – | COC(=O)c1ccccc1NC(O)CC(C)c1ccccc1 (centres unmarked) [Material 1093]
DHJK | – | – | CC(=O)C1CC/C(C)=C\CC/C(C)=C\C/C=C/1C (centres unmarked) [Material 1095]
CHJ | – | – | COc1cc(C=O)ccc1OC(=O)C(C)C [Material 1111]
– | CEFHK | – | CC=Cc1ccc(OCC)c(O)c1 [Material 1112]
– | – | CGIK | COCc1ccc(O)c(OC)c1 [Material 1113]
– | – | BDFHJK | CC(C=O)=CCC1C(C)=CCCC1(C)C (centres unmarked) [Material 1116]
– | – | CGIJ | COC(=O)c1c(C)cc(O)c(C)c1O [Material 1117]
– | – | ACEFHJKL | COC1C=CC2C3CCC(C3)C12 (centres unmarked) [Material 1120]
– | – | DFHJ | COC(=O)c1ccccc1N=CC(C)Cc1ccc(C(C)(C)C)cc1 (centres unmarked) [Material 1121]
– | – | ADEFHJKL | CCC=CCCOC(=O)C(C)C [Material 1125]
– | – | BCFHJK | CC1CC(C)(c2ccccc2)OC(C)O1 (centres unmarked) [Material 1126]
– | DHJK | DHJK | CC(=O)C1=C(C)[C@@H]2C[C@@]3(C1)[C@H](C)CC[C@H]3C2(C)C [Material 1129]
– | DEFHJ | DEFHJ | COC(=O)c1ccccc1/N=C\C1CCC(C)=CC1C (centres unmarked) [Material 1131]
– | BDFHJK | – | CC(=O)OC(C)CC(C)(C)c1ccccc1 (centres unmarked) [Material 1134]
– | – | BCHJKL | COC(=O)OC1CC/C=C\CCC1 (centres unmarked) [Material 1139]

Continued, compound first:

Compound | Comment Code [1] | Comment Code [2] | Comment Code [3]
CC1=CC[C@@H]2C3CC([C@@H]2C1)[C@@]1(C3)OC1C (some centres unmarked) [Material 1007] | DEFHJK | DEFHJK | –
C/C=C1/CC2CC1C1CCCOC21 (centres unmarked) [Material 1008] | BCEFHJKL | – | –
C=C[C@@](C)(O)CCC=C(C)C [Material 1017] | – | BCEFGIJK | –
C=C1CCC2(C(C)C)CC12 (centres unmarked) [Material 1018] | – | ADEFGIJKL | –
CC(C)C12CCC(C)(O)C1C2 (centres unmarked) [Material 1019] | – | ADEFGIJKL | –
C=CCc1ccc2c(c1)OCO2 [Material 1021] | BCEFHK | – | –
CC1=CC(C)C2(CCCC(C)(C)C2=O)CC1 (centres unmarked) [Material 1022] | DHIJK | DHIJK | –
CC/C(=C/CC1CC=C(C)C1(C)C)CO (centres unmarked) [Material 1024] | DEFHJK | DEFHJK | –
COC1CC2CC1C1CC(C=O)CC21 (centres unmarked) [Material 1026] | CHJK | – | –
COC1CC2CC1C1CC(C=O)CC21 (centres unmarked) [Material 1027] | – | CHJK | –
C=C[C@](C)(O)CC[C@@H]1[C@@]2(C)CCCC(C)(C)[C@@H]2CC[C@@]1(C)O [Material 1028] | DEFHJ | DEFHJ | –
CC1=CC[C@@H]2[C@@]3(C)CCCC(C)(C)[C@@H]3CC[C@@]2(C)O1 [Material 1029] | DEFHJK | DEFHJK | –
CC1=CCCC2(C)CCC(=C(C)C)CC12 (centres unmarked) [Material 1031] | DEFHJKL | – | –
C=C1CC[C@@H]2[C@H]([C@H]3[C@H]1CC[C@]3(C)O)C2(C)C [Material 1035] | DEFHJK | DEFHJK | –
CC1CCC2C(C2(C)C)C12COC(C)(C)OC2 (centres unmarked) [Material 1036] | BCEFHJK | – | –
C=CCCC(=O)C1=CCCC2(CCCC2)C1 [Material 1038] | DGJK | DGJK | –
O=C1CCC2(CCCCC2)O1 [Material 1039] | – | BCGIKL | –
Cc1ncsc1CCO [Material 1042] | CGIKL | – | –
CCCCC(CC)C1OCCO1 (centres unmarked) [Material 1043] | ACEFHIJKL | – | –
CCCCCCC/C=C\CCC=O [Material 1045] | BDFHJK | – | –

Compound | Comment Code [1] | Comment Code [2] | Comment Code [3]
CC(C)CCCC(C)CC=O (centres unmarked) [Material 1051] | – | ADGIJKL | –
CC(O)CCC1C(C)CCCC1(C)C (centres unmarked) [Material 1052] | – | BDEFHIJK | –
CCCCCC1C(=O)CCC1C (centres unmarked) [Material 1053] | BDFHIJKL | – | –
CCC(C)(O)CCCC(C)C (centres unmarked) [Material 1054] | – | BDEFGIJKL | –
CC1=CCCC(C)(C)C12CCC(C)O2 (centres unmarked) [Material 1057] | BDFHIJKL | – | –
CC1CCC(C(C)(C)S)C(=O)C1 (centres unmarked) [Material 1059] | BDEFHIJKL | – | –
CC1=CCC2(C)CCCC(C)(C)C23CC13 (centres unmarked) [Material 1060] | BDEFGJKL | BDEFGJKL | –
CCCC(O)CCC1C(C)CCCC1(C)C (centres unmarked) [Material 1063] | DEFHJK | – | –
CCCC/C=C/C=C/C=O [Material 1064] | ACHKL | – | –
CC(C)=CCC/C(C)=C/CC/C(C)=C/CO [Material 1065] | DEFHJK | – | –
CC/C=C\CC/C=C/C=O [Material 1066] | ACHKL | – | –
CCCCCCC/C=C/C=O [Material 1067] | ADHKL | – | –
CCC/C=C/CO [Material 1069] | – | ACEFHIKL | –
CCCCCC/C=C/C=O [Material 1070] | ADHKL | – | –
CC(C)(C)[C@@H]1CCCC[C@H]1O [Material 1071] | – | ACGIJKL | –
CC/C=C\C/C=C/CCO [Material 1072] | ACEFHK | – | –
CCCCC/C=C/CCC=O [Material 1073] | ADHKL | – | –
CC(C)=CCC/C(C)=C/CO [Material 1082] | BCHIK | – | –
CC(=O)OC(c1ccccc1)C(Cl)(Cl)Cl (centres unmarked) [Material 1088] | – | BDEFGJ | –
CCCCCCCCCCCCCO [Material 1090] | DEFGJK | – | –

Compound | Comment Code [1] | Comment Code [2] | Comment Code [3]
CCOC(=O)CC(O)(CC(=O)OCC)C(=O)OCC [Material 1091] | CEFGJ | – | –
CC1CC2CCC3C(C2O1)C(C)(C)C(C)C3(C)C (centres unmarked) [Material 1097] | BDEFHJK | DEFHJK | –
CCCC(C)(S)CO (centres unmarked) [Material 1098] | – | ACEFHIJKL | –
CC1CC=CCCCCCCCC(=O)OCC1 (centres unmarked) [Material 1099] | DEFHJK | – | –
CCCCCCCCCCC=O [Material 1102] | BDHJK | – | –
CCC=C(C)C(O)CCCCC (centres unmarked) [Material 1104] | BDEFHIJK | – | –
C=C(C)[C@@H]1CCC2=CCC[C@@H](C)[C@]2(C)C1 [Material 1105] | BDEFHJK | – | –
C[C@@H]1CCC=C2CC[C@@H](C(C)(C)O)C[C@]21C [Material 1107] | DEFHJK | DEFHJK | –
CCCCCC1(C)CCC(C)(C)C1=O (centres unmarked) [Material 1115] | – | BDFGIJKL | –
COc1ccc(C=O)cc1OC [Material 1118] | – | BCGIK | –
CC1=CC(=O)[C@@H]2C[C@H]1C2(C)C [Material 1119] | – | ACEFGIJKL | –
CC(C)(C)C1CCCCC1O (centres unmarked) [Material 1122] | – | ACGIJKL | –
C1CC2C3CC(C2C1)C1(CCCO1)C3 (centres unmarked) [Material 1137] | – | DEFGJKL | DEFGJKL
CC/C=C/CC/C=C\C#N [Material 1138] | – | – | ACEFHKL
C[C@@H]1CC[C@H]2[C@@H]1[C@H]1[C@@H](CC[C@]2(C)O)C1(C)C [Material 1140] | – | DEFHJK | DEFHJK
C=C(C)COCC/C=C\CC [Material 1141] | – | ADEFHKL | –
Cc1cc2c(cc1C#N)C(C)(C)C(C)C(C)C2(C)C (centres unmarked) [Material 1142] | – | DHJ | DHJ
C[C@H]1[C@@H]2C[C@H](C[C@@]13C=CC(=O)CC3)C2(C)C [Material 1143] | – | DEFHJK | DEFHJK
CC1(C)C2CCC3(C2)C1C1(CCC3(C)C)OCCO1 (centres unmarked) [Material 1144] | – | DEFHJK | DEFHJK
CC1(C)C2CCC3(C2)C1C1(CCC3(C)C)OCCO1 (centres unmarked) [Material 1145] | – | – | DEFHJK
